Measured values taken from patent US20030110518A1, “Melanocortin-5 receptor sequences and uses thereof” (priority 2001, published 2003).
Blank lines part the entries; values can stand above or below the substance they belong to.

Tests used:
[1] = molecular target: T1, canine MC5R (Canis lupus familiaris, UniProt A0A8I3MI44)
Method: The following example discloses the measurement of canine MC5R-mediated cAMP accumulation in response to α-MSH stimulation.
As described above, MC5R, when activated by its agonist ligand, stimulates adenylyl cyclase to form cAMP. A commercially available kit (Adenylyl Cyclase Activation Flashplate Assay, NEN® Life Science Products, Inc., Boston, Mass., Cat # SMP004, SMP004A) is used to measure cAMP accumulation. An MC5R/HEK293 cell line is prepared. Cells are harvested using Sigma dissociation buffer, washed, centrifuged and resuspended in stimulation buffer, which is provided in the kit (Sigma Chemical Co., St. Louis, Mo.). The suspended cells are counted using a hemacytometer. Cells are pelleted again by centrifugation and resuspended with stimulation buffer to the desired concentration (0.5-5×10^6 cells per ml). A cell volume titration is performed by transferring varying volumes in triplicate into wells. For each cell concentration tested, a full agonist dose titration is performed, including a negative control. The agonists employed include [Nle^4,D-Phe^7]-α-MSH(NDP-MSH) and α-MSH. […]
The duration of stimulation by agonist is also varied (15-45 minutes). […] Stimulation of MC5R is determined by scillintation counting in a Wallac MICROBETA® scintillation counter (EG&G Wallac, Gaithersburg, Md.).

[2] = molecular target: canine melanocortin 5 receptor (canine); experiment: cell-based or functional assay
[3] = molecular target: T1, canine MC5R; experiment: Whole cell binding assay with radiolabeled NDP-MSH in transfected HEK293a cells; set-up: expressed in transfected cells; host or cells: HEK293 / HEK293a; conditions: 75 pM label, 37° C., 1 hour; clones nos. 9 and 13; FIG. 5
Method: Transient transfection & Whole Cell Binding Assay. A 50% confluent cell culture plate containing HEK293 cells is used for transient transfection with various vector constructs using Fugene 6 as a transfection carrier (4 μl Fugene 6 per μg plasmid DNA). Cells are harvested 48 hours post transfection using Sigma dissociation buffer (Sigma Chemical Co., St. Louis, Mo.), then centrifuged and resuspended in binding buffer (50 mM HEPES, 5 mM MgCl, 0.1% BSA, pH 7.5, containing a Sigma P-8340 protease inhibitor cocktail). The resuspended cell population is counted using a hemacytometer. A cell volume titration is performed by pipetting varying volumes in triplicate into tubes. Either buffer or excess cold NDP-MSH (2 μM final conc.) is added. Excess cold NDP-MSH is used to ascertain non-specific binding. Radiolabeled (^125I) NDP-MSH is added such that the final concentration is 75 pM. The reaction is incubated at 37° C. for 1 hour, and then the reaction mixture is centrifuged at 5000×g for 10 minutes. The supernatant solution is removed by aspiration and radioisotope remaining with the cell pellet is counted in a gamma counter. FIG. 5 discloses the specific NDP-MSH binding to five canine MC5R/HEK293a cells (shown as “C5#_” in FIG. 5).

T1 sequence (A0A8I3MI44 1-325): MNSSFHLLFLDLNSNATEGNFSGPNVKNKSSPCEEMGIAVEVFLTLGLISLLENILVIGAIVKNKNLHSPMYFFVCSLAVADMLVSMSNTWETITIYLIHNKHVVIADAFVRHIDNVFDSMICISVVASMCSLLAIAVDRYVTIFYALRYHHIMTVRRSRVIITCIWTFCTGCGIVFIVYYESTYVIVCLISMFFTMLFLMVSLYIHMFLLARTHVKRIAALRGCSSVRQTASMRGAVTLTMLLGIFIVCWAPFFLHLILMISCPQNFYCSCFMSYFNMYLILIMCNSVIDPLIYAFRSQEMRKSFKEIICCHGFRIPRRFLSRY
Chain of canine melanocortin 5 receptor (canine) (chain, as listed by the source limits assumed): as the sequence (A0A8I3MI44 1-325) above, with H100Y, G314A counted along it

Substance: α-melanocyte stimulating hormone [α-MSH]
sensitivity of MC5R clones to α-MSH compared with a MC4R clone ([1]; both MC5R clones versus a MC4R clone): more sensitive
stimulation of cAMP accumulation with α-MSH ([1]; three clones, FIG. 6): ≤ 8 fold

EC50 of cAMP accumulation (Adenylyl Cyclase Activation Flashplate Assay), clone C9 [2]: 5 nM
fold stimulation of cAMP accumulation [2]: < 8 fold
Substance: α-melanocyte stimulating hormone (from UniProt P01189 138-150) (peptide)

specific binding of radiolabeled (125I) NDP-MSH to canine MC5R/HEK293a cells [3]: high level of specific binding
Substance: [Nle4,D-Phe7]-α-MSH [NDP-MSH]
